# According to patent US20250082633A1, “COMPOUNDS AND METHODS FOR MODULATING SPLICING” (REMIX THERAPEUTICS INC., priority 2021, published 2025):
# System: HiBiT-tagged HTT protein in K562 cells
# Assay: HiBit protein abundance assay, HTT
# Format: cell-based, human
# Settings: K562 HiBiT-modified cells, 24 hours, luminescence
# Experimental: Compounds described herein were used to screen for effects on quantitative protein abundance using a HiBit assay system (Promega). Quantitative protein abundance was determined by measuring the protein levels of HiBit-tagged protein targets expressed in cell culture via luminescence using the Nano-Glo HiBiT Lytic Detection System, which uses a split complementation assay format to reconstitute NanoBiT enzyme to generate a luminescent signal. A protein abundance assay was developed such that endogenous protein targets could be modified with the HiBiT peptide tag and their abundance could be assessed after compound treatment. Briefly, K562 cell lines containing a HiBiT-modification were treated with various compounds described herein (e.g., compounds of Formulas (I), (II), or (III)). After treatment for 24 hours, the protein abundance of a specific target was determined by measuring luminescence. • Promega Nano-Glo HiBiT Lytic Detection System (cat #N3030) • Corning 384-well TC-treated microplates (cat #3570) • Synthego Engineered Cells Knock-In Clones [table] Cells were maintained in IMDM with 10% FBS. Before the assay, cells were diluted with phenolphthalein-free growth media (IMDM+1% FBS media) and were seeded in a 384-well plate at a density of 10000 cells/well (for each cell line listed in Table 6). Each compound was prepared as a 10-point 3-fold serial dilution in DMSO with the top dose at a final concentration of 10 μM in the well. Unmodified K562 cells were added at the previously specified density with DMSO to serve as an assay baseline and positive control (PC) and DMSO only with the respective modified cell lines was added to the negative control (NC) columns. Final DMSO concentration was kept at or below 0.25%. Treated cell plates were placed in an incubator at 37° C. with 5% CO2 for 24 hours. After 24 hours, 25 μL of Complete HiBit Lytic reagent was added to each well at room temperature (e.g. one plate requiring 10 mL Lytic Buffer, 100 μL LgBiT Protein, 200 μL Lytic Substrate), shaken for 5 minutes at 600 RPM, then left to sit for 10 minutes for signal to stabilize before reading on a Spark Cyto plate reader (Tecan) with a 500 ms measurement time. To determine compound effects on protein abundance of each target in Table 6, the percent response for each respective cell line was calculated at each compound concentration as follows: For the normalized response at each concentration, a four-parameter logistical regression was fit to the data and the response was interpolated at the 50% value to determine a concentration for protein abundance at 50% (IC50) the untreated control.
row,Compound,IC50
1,"CCN1CCC(n2cc3cc(-c4cc(C)c5nc(C)cn5n4)cc(F)c3n2)CC1 [Compound 146, 6-[2-(1-ethyl-4-piperidyl)-7-fluoro-indazol-5-yl]-2,8-dimethyl-imidazo[1,2-b]pyridazine]",< 100 nM
2,"Cc1cn2nc(-c3cc4cn(C5CCNCC5)nc4cn3)cc(C)c2n1 [Compound 147, 2,8-dimethyl-6-[2-(4-piperidyl)pyrazolo[3,4-c]pyridin-5-yl]imidazo[1,2-b]pyridazine]",100 to 1000 nM
3,"Cn1cc2cc(-c3ccc4cn(C5CCNCC5)nc4c3)cc(F)c2n1 [Compound 148, 7-fluoro-2-methyl-5-[2-(4-piperidyl)indazol-6-yl]indazole]",1000 to 10000 nM
4,"Cc1cn2nc(-c3cc(F)c4nn(C5CCN(CC6CC6)CC5)cc4c3)cc(C)c2n1 [Compound 149, 6-[2-[1-(cyclopropylmethyl)-4-piperidyl]-7-fluoro-indazol-5-yl]-2,8-dimethyl-imidazo[1,2-b]pyridazine]",< 100 nM
5,"Cc1cn2nc(-c3cc(F)c4nn(C5CCN(C)CC5)cc4c3)cc(C)c2n1 [Compound 150, 6-[7-fluoro-2-(1-methyl-4-piperidyl)indazol-5-yl]-2,8-dimethyl-imidazo[1,2-b]pyridazine]",< 100 nM
6,"Cc1cn2nc(-c3cc(F)c4nn(C5CCN(C6CCC6)CC5)cc4c3)cc(C)c2n1 [Compound 151, 6-[2-(1-cyclobutyl-4-piperidyl)-7-fluoro-indazol-5-yl]-2,8-dimethyl-imidazo [1,2-b] pyridazine]",< 100 nM
7,Cc1cn2nc(-c3cc(F)c4nn(C5CCN(CCF)CC5)cc4c3)cc(C)c2n1 [Compound 152],< 100 nM
8,"Cc1cn2nc(-c3cc4cn(C5CCNCC5)nc4c(OCc4ccccc4)n3)cc(C)c2n1 [Compound 153, 6-[7-benzyloxy-2-(4-piperidyl)pyrazolo [3,4-c]pyridin-5-yl]-2,8-dimethyl-imidazo[1,2-b]pyridazine]",1000 to 10000 nM
9,"Cc1cn2nc(-c3cc4cn(C5CCNCC5)nc4cc3O)cc(C)c2n1 [Compound 154, 5-(2,8-dimethylimidazo[1,2-b]pyridazin-6-yl)-2-(piperidin-4-yl)-2H-indazol-6-ol]",< 100 nM
10,"COc1cc(-c2cc(C)c3nc(C)cn3n2)cc2cn(C3CCNCC3)nc12 [Compound 155, 6-(7-methoxy-2-(piperidin-4-yl)-2H-indazol-5-yl)-2,8-dimethylimidazo [1,2-b]pyridazine]",< 100 nM
11,"Cc1cn2nc(-c3cc(O)c4nn(C5CCNCC5)cc4c3)cc(C)c2n1 [Compound 156, 5-(2,8-dimethylimidazo[1,2-b]pyridazin-6-yl)-2-(piperidin-4-yl)-2H-indazol-7-ol]",100 to 1000 nM
12,"Cc1ccc2nc(-c3cc(F)c4nn(C5CCNCC5)cc4c3)ccc2n1 [Compound 157, 2-[7-fluoro-2-(4-piperidyl)indazol-5-yl]-6-methyl-1,5-naphthyridine]",1000 to 10000 nM
13,"Fc1cc(-c2ccc3ccncc3c2)cc2cn(C3CCNCC3)nc12 [Compound 158, 7-[7-fluoro-2-(4-piperidyl)indazol-5-yl]isoquinoline]",1000 to 10000 nM
14,"COc1cc2nn(C3CCNCC3)cc2cc1-c1cc(C)c2nc(C)cn2n1 [Compound 159, 6-(6-methoxy-2-(piperidin-4-yl)-2H-indazol-5-yl)-2,8-dimethylimidazo[1,2-b]pyridazine]",> 10000 nM
15,"Cc1cn2nc(-c3cc(F)c4nn(C5CCN(CCO)CC5)cc4c3)cc(C)c2n1 [Compound 160, 2-[4-[5-(2,8-dimethylimidazo[1,2-b]pyridazin-6-yl)-7-fluoro-indazol-2-yl]-1-piperidyl]ethanol]",< 100 nM
16,"Fc1cc(-c2ccc3cnccc3c2)cc2cn(C3CCNCC3)nc12 [Compound 161, 6-[7-fluoro-2-(4-piperidyl)indazol-5-yl]isoquinoline]",100 to 1000 nM

row,Compound,IC50
1,"Fc1cc(-c2ccc3ncccc3c2)cc2cn(C3CCNCC3)nc12 [Compound 162, 6-[7-fluoro-2-(4-piperidyl)indazol-5-yl]quinoline]",1000 to 10000 nM
2,"Cc1ccc2cc(-c3cc(F)c4nn(C5CCNCC5)cc4c3)ccc2n1 [Compound 163, 6-[7-fluoro-2-(4-piperidyl)indazol-5-yl]-2-methyl-quinoline]",1000 to 10000 nM
3,"Cc1ncc2cc(-c3cc(F)c4nn(C5CCNCC5)cc4c3)ccc2n1 [Compound 165, 6-[7-fluoro-2-(4-piperidyl)indazol-5-yl]-2-methyl-quinazoline]",> 10000 nM
4,"Cc1cn2nc(-c3cc(F)c4nn(C5CCNCC5F)cc4c3)cc(C)c2n1 (centres unmarked) [Compound 166, 6-[7-fluoro-2-(3-fluoro-4-piperidyl)indazol-5-yl]-2,8-dimethyl-imidazo [1,2-b]pyridazine]",< 100 nM
5,"Cc1cn2nc(-c3cc(F)c4nn([C@H]5CCNC[C@@H]5F)cc4c3)cc(C)c2n1 [Compound 167, 6-(7-fluoro-2-((3S,4S)-3-fluoropiperidin-4-yl)-2H-indazol-5-yl)-2,8-dimethylimidazo[1,2-b]pyridazine]",100 to 1000 nM
6,"Cc1cn2nc(-c3cc(F)c4nn([C@@H]5CCNC[C@H]5F)cc4c3)cc(C)c2n1 [Compound 168, 6-(7-fluoro-2-((3R,4R)-3-fluoropiperidin-4-yl)-2H-indazol-5-yl)-2,8-dimethylimidazo [1,2-b]pyridazine]",< 100 nM
7,"Cc1cn2nc(-c3cc(F)c4nn(C5CCNC6(CC6)C5)cc4c3)cc(C)c2n1 (centres unmarked) [Compound 171, 6-[2-(4-azaspiro[2.5]octan-7-yl)-7-fluoro-indazol-5-yl]-2,8-dimethyl-imidazo[1,2-b]pyridazine]",< 100 nM
8,Cc1cn2nc(-c3cc(F)c4nn([C@H]5CCNC6(CC6)C5)cc4c3)cc(C)c2n1 [Compound 172],< 100 nM
9,Cc1cn2nc(-c3cc(F)c4nn([C@@H]5CCNC6(CC6)C5)cc4c3)cc(C)c2n1 [Compound 173],< 100 nM
10,"Cc1cn2nc(-c3cc(F)c4nn(C5CCN(C)C6(CC6)C5)cc4c3)cc(C)c2n1 (centres unmarked) [Compound 174, 6-[7-fluoro-2-(4-methyl-4-azaspiro[2.5]octan-7-yl)indazol-5-yl]-2,8-dimethyl-imidazo[1,2-b]pyridazine]",< 100 nM
11,"CCN1CCC(n2cc3cc(-c4cc(C)c5nc(C)cn5n4)cc(F)c3n2)CC12CC2 (centres unmarked) [Compound 177, 6-[2-(4-ethyl-4-azaspiro[2.5]octan-7-yl)-7-fluoro-indazol-5-yl]-2,8-dimethyl-imidazo[1,2-b]pyridazine]",< 100 nM
12,"Cc1cn2nc(-c3cc(F)c4nn(C5CCN(CCO)C6(CC6)C5)cc4c3)cc(C)c2n1 (centres unmarked) [Compound 180, 2-[7-[5-(2,8-dimethylimidazo[1,2-b]pyridazin-6-yl)-7-fluoro-indazol-2-yl]-4-azaspiro[2.5]octan-4-yl]ethanol]",< 100 nM
13,"Cc1cn2nc(-c3cc(F)c4nn(C5CCN(CC6CC6)C6(CC6)C5)cc4c3)cc(C)c2n1 (centres unmarked) [Compound 183, 6-[2-[4-(cyclopropylmethyl)-4-azaspiro[2.5]octan-7-yl]-7-fluoro-indazol-5-yl]-2,8-dimethyl-imidazo[1,2-b]pyridazine]",< 100 nM
14,"Cc1cn2nc(-c3cc(F)c4nn(C5CCN(C6CCC6)C6(CC6)C5)cc4c3)cc(C)c2n1 (centres unmarked) [Compound 186, 6-[2-(4-cyclobutyl-4-azaspiro[2.5]octan-7-yl)-7-fluoro-indazol-5-yl]-2,8-dimethyl-imidazo[1,2-b]pyridazine]",< 100 nM
15,"Cc1cn2nc(-c3cc(F)c4nn(C5CCNC6(CCC6)C5)cc4c3)cc(C)c2n1 (centres unmarked) [Compound 189, 6-[2-(5-azaspiro[3.5]nonan-8-yl)-7-fluoro-indazol-5-yl]-2,8-dimethyl-imidazo[1,2-b]pyridazine]",< 100 nM
16,"Cc1cn2nc(-c3ccc4nn(C5CCNCC5)cc4c3)cc(C)c2n1 [Compound 192, 2,8-dimethyl-6-[2-(4-piperidyl)indazol-5-yl]imidazo[1,2-b]pyridazine]",< 100 nM
